Experimental data: US8247211B2, “Glycopeptide antibiotics” (American Cyanamid Company, priority 2001, dated 2012)
Values after ≈ are worked out from the molar mass of the structure shown.

Columns and labels:
Assay in all cases: In vitro antibacterial evaluation: minimum inhibitory concentration (MIC), broth dilution method
Assay type in all cases: cell-based
Streptococcus sp. = conditions: 18 hours at 35° C.
Outline: (§1)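 First, organisms are seeded at 5×10^5 CFU/mL into Muller-Hinton II […]. Next, antibiotic is applied across 64-0.06 μg/mL by broth dilution (NCCLS M7-A2). Finally, the lowest inhibitory concentration is recorded as MIC.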

Escherichia coli = Escherichia coli (GC 4560); 18 hours at 35° C.
Outline: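 NCCLS M7-A2 broth dilution; Muller-Hinton II […]; 5×10^5 CFU/mL; 64-0.06 μg/mL. MIC = lowest concentration with no growth.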

Staphylococcus sp. = system: Staphylococcus sp.
Outline: as §1

Enterococcus sp. = conditions: 18 hours at 35° C.
Outline: as §1

[1] = broth dilution, inoculum 5×10^5 CFU/mL

MIC Streptococcus agalactiae (GC 4564) (Streptococcus sp.; Streptococcus agalactiae (GC 4564)): 0.5 mg/L (≈ 0.334 µM)
MIC Streptococcus pneumoniae (ATCC 6301) (Streptococcus sp.; Streptococcus pneumoniae (ATCC 6301)): 0.5 mg/L (≈ 0.334 µM)
MIC Streptococcus pneumoniae (GC 1894) (Streptococcus sp.; Streptococcus pneumoniae (GC 1894)): <0.12 mg/L
MIC Streptococcus pneumoniae (GC 4565) (Streptococcus sp.; Streptococcus pneumoniae (GC 4565)): 1 mg/L (≈ 0.669 µM)
MIC Streptococcus pyogenes (GC 4563) (Streptococcus sp.; Streptococcus pyogenes (GC 4563)): 0.5 mg/L (≈ 0.334 µM)
MIC Streptococcus agalactiae (GC 4564) (Streptococcus sp.; [1]): 0.5 mg/L (≈ 0.334 µM)
MIC Streptococcus pneumoniae (ATCC 6301) (Streptococcus sp.; [1]): 0.5 mg/L (≈ 0.334 µM)
MIC Streptococcus pneumoniae (GC 1894) (Streptococcus sp.; [1]): <0.12 mg/L
MIC Streptococcus pneumoniae (GC 4565) (Streptococcus sp.; [1]): 1 mg/L (≈ 0.669 µM)
MIC Streptococcus pyogenes (GC 4563) (Streptococcus sp.; [1]): 0.5 mg/L (≈ 0.334 µM)
MIC Escherichia coli (GC 4560) (Escherichia coli): 4 mg/L (≈ 2.67 µM)
MIC Staphylococcus aureus (ATCC 29213) (Staphylococcus sp.; strain ATCC 29213): 4 mg/L (≈ 2.67 µM)
MIC Staphylococcus aureus (GC 1131) (Staphylococcus sp.; strain GC 1131): 8 mg/L (≈ 5.35 µM)
MIC Staphylococcus aureus (GC 3051) (Staphylococcus sp.; strain GC 3051): 4 mg/L (≈ 2.67 µM)
MIC Staphylococcus aureus (GC 3053) (Staphylococcus sp.; strain GC 3053): 8 mg/L (≈ 5.35 µM)
MIC Staphylococcus aureus (GC 4541) (Staphylococcus sp.; strain GC 4541): 4 mg/L (≈ 2.67 µM)
MIC Staphylococcus aureus (GC 4542) (Staphylococcus sp.; strain GC 4542): 8 mg/L (≈ 5.35 µM)
MIC Staphylococcus aureus-SMITH (GC 4543) (Staphylococcus sp.; strain GC 4543): 4 mg/L (≈ 2.67 µM)
MIC Staphylococcus aureus (GC 4544) (Staphylococcus sp.; strain GC 4544): 8 mg/L (≈ 5.35 µM)
MIC Staphylococcus aureus (GC 4545) (Staphylococcus sp.; strain GC 4545): 4 mg/L (≈ 2.67 µM)
MIC Coagulase Negative Staphylococcus (GC 4547) (Staphylococcus sp.; strain GC 4547): 4 mg/L (≈ 2.67 µM)
MIC Coagulase Negative Staphylococcus (GC 4548) (Staphylococcus sp.; strain GC 4548): 2 mg/L (≈ 1.34 µM)
MIC Coagulase Negative Staphylococcus (GC 4549) (Staphylococcus sp.; strain GC 4549): 2 mg/L (≈ 1.34 µM)
MIC Coagulase Negative Staphylococcus (GC 4551) (Staphylococcus sp.; strain GC 4551): 4 mg/L (≈ 2.67 µM)
MIC Enterococcus avium (GC 4558) (Enterococcus sp.; Enterococcus avium (GC 4558)): 4 mg/L (≈ 2.67 µM)
MIC Enterococcus faecalis (ATCC 29212) (Enterococcus sp.; Enterococcus faecalis (ATCC 29212)): 8 mg/L (≈ 5.35 µM)
MIC Enterococcus faecalis (GC 2242) (Enterococcus sp.; Enterococcus faecalis (GC 2242)): 8 mg/L (≈ 5.35 µM)
MIC Enterococcus faecalis (GC 2691) (Enterococcus sp.; Enterococcus faecalis (GC 2691)): 16 mg/L (≈ 10.7 µM)
MIC Enterococcus faecalis (GC 3059) (Enterococcus sp.; Enterococcus faecalis (GC 3059)): 16 mg/L (≈ 10.7 µM)
MIC Enterococcus faecalis (GC 4552) (Enterococcus sp.; Enterococcus faecalis (GC 4552)): 8 mg/L (≈ 5.35 µM)
MIC Enterococcus faecalis (GC 4553) (Enterococcus sp.; Enterococcus faecalis (GC 4553)): 4 mg/L (≈ 2.67 µM)
MIC Enterococcus faecalis (GC 4554) (Enterococcus sp.; Enterococcus faecalis (GC 4554)): 16 mg/L (≈ 10.7 µM)
MIC Enterococcus faecalis (GC 6189) (Enterococcus sp.; Enterococcus faecalis (GC 6189)): 16 mg/L (≈ 10.7 µM)
MIC Enterococcus faecium (GC 2243) (Enterococcus sp.; Enterococcus faecium (GC 2243)): 4 mg/L (≈ 2.67 µM)
MIC Enterococcus faecium (GC 4556) (Enterococcus sp.; Enterococcus faecium (GC 4556)): 8 mg/L (≈ 5.35 µM)
MIC Enterococcus faecium (GC 4557) (Enterococcus sp.; Enterococcus faecium (GC 4557)): 1 mg/L (≈ 0.669 µM)
MIC Enterococcus avium (GC 4558) (Enterococcus sp.; [1]): 4 mg/L (≈ 2.67 µM)
MIC Enterococcus faecalis (ATCC 29212) (Enterococcus sp.; [1]): 8 mg/L (≈ 5.35 µM)
MIC Enterococcus faecalis (GC 2242) (Enterococcus sp.; [1]): 8 mg/L (≈ 5.35 µM)
MIC Enterococcus faecalis (GC 2691) (Enterococcus sp.; [1]): 16 mg/L (≈ 10.7 µM)
MIC Enterococcus faecalis (GC 3059) (Enterococcus sp.; [1]): 16 mg/L (≈ 10.7 µM)
MIC Enterococcus faecalis (GC 4552) (Enterococcus sp.; [1]): 8 mg/L (≈ 5.35 µM)
MIC Enterococcus faecalis (GC 4553) (Enterococcus sp.; [1]): 4 mg/L (≈ 2.67 µM)
MIC Enterococcus faecalis (GC 4554) (Enterococcus sp.; [1]): 16 mg/L (≈ 10.7 µM)
MIC Enterococcus faecalis (GC 6189) (Enterococcus sp.; [1]): 16 mg/L (≈ 10.7 µM)
MIC Enterococcus faecium (GC 2243) (Enterococcus sp.; [1]): 4 mg/L (≈ 2.67 µM)
MIC Enterococcus faecium (GC 4556) (Enterococcus sp.; [1]): 8 mg/L (≈ 5.35 µM)
MIC Enterococcus faecium (GC 4557) (Enterococcus sp.; [1]): 1 mg/L (≈ 0.669 µM)
SMILES: CC(C)=CCN1CC(C(O)C2NC(=O)C(C(O)C3CNC(=N)N3)NC(=O)C(Cc3ccc(OC4OC(CO)C(OC5OC6COC7(OC6C(O)C5O)C5CC6CC(C5)CC7C6)C(O)C4O)cc3)NC(=O)C(C(C)c3ccccc3)NC(=O)CNC(=O)C(CO)NC2=O)N(C2OC(CO)C(O)C(O)C2O)C1=N (stereo not drawn) [Example 225, Cyclo[glycyl-β-methylphenylalanyl-O-[4-O-[4,6-O-(2-adamantylidene)hexopyranosyl]hexopyranosyl]tyrosyl-3-(2-iminoimidazolidin-4-yl)seryl-3,3-hexopyranosyl-2-imino-1-(3-methylbut-2-en-1-iminoimidazolidin-4-yl]serylseryl]]
MIC Staphylococcus haemolyticus (GC 4546) (Staphylococcus sp.; strain GC 4546): 4 mg/L (≈ 2.67 µM)
